Measurements: patent US20240109898A1, “SUBSTITUTED PYRAZOLO[1,5-A]PYRIMIDINE-7-AMINE DERIVATIVES, COMPOSITIONS AND PHARMACEUTICAL USES THEREOF” (SHANGHAI HAIYAN PHARMACEUTICAL TECHNOLOGY CO., LTD., priority 2021, published 2024)

Experiments:
CDK9/CycT = CDK9/CycT (Homo sapiens (Human), UniProt P50750); assay: LANCE Ultra kinase activity inhibition assay, CDK9/CycT; format: biochemical; conditions: ATP 10 μM, highest compound concentration 1 μM
Procedure: (§1) In the following LANCE Ultra test methods, kinase reagents were purchased from Carna Bioscience, reaction substrates and detection reagents were purchased from PerkinElmer, and the remaining reagents were purchased from Thermo scientific.
The inhibiting effects on the kinase activity of CDK1/CycB (Carna bioscience, #04-102), CDK2/CycA (Carna bioscience, #04-103) and CDK9/CycT (Carna bioscience, #04-110) were determined by using LANCE Ultra method.
The kinase activity test was performed using a system (10 μL) containing the following components: substrate diluent prepared by mixing CDK kinase diluent, Ulight-Myelic basic protein (Perkin Elmer, #TRF-0109, hereinafter referred to as U-MBP) and ATP (Thermo scientific, #PV3227); and the compounds (i.e., analyte) prepared in the examples of the present disclosure. The assay for each kinase includes three test groups, i.e., a background group (Blank), a non-inhibition group (PC), and compound testing group (Test). The components included in each test group were as follows:
(§2) Working concentrations of the respective components of the Test groups in different kinase reactions were as follows.
(§3) Compounds: 10 mM of the compound to be tested was dissolved at room temperature and diluted with DMSO to gradient concentrations, followed by diluting with deionized water to prepare a 4× working solution of the compound, and the content of DMSO was 2%. The highest concentration of compound used in the CDK1 and CDK2 assays was 10 μM, and that in CDK9 assay was 1 μM.
1.33×reaction buffer: the components include 26.7 mM of MOPS, 6.67 mM of MgCl2, and 0.0133% Tween-20, which were stored in a 4° C. refrigerator and protected from light after preparation. Freshly prepared DTT was added to a final concentration of 5.33 mM before use.
(§4) The working concentration of DMSO in the reaction was 0.5%.
(§5) The above-mentioned components, after being mixed, were placed on a shaker and incubated at room temperature in the dark for 1 h. 10 μL of test solution was then added to all test groups (including Blank, PC and Test groups).
10 μL of test solution contains the following components: 16 mM of EDTA (Thermo scientific, #15575), 1 nM of phosphorylated U-MBP protein antibody (Perkin Elmer, #TRF-0201), and 1× detection damping fluid (Perkin Elmer, #CR97-100).
After the test solution was added, the solution was placed on a shaker and continually incubated at room temperature for 1 h in the dark. At the end of incubation, Victor X5 fluorescence microplate reader of Perkin Elmer was used to read the signal; the wavelength of excitation light was 320 nm, and the wavelengths of emission light were 615 nm and 665 nm. The inhibition rate was calculated as below.
1. For all groups, a value of 665 nm/615 nm (hereinafter referred to as Ratio) was calculated, and an inhibition rate was calculated based on the Ratio of each group;
(§6) 2. Inhibition rate=(PCRatio-TestRatio)/(PCRatio-BlankRatio)*100%; and
(§7) 3. XLFIT 5.0 software (IDBS, UK) was used to fit a graph by using the logarithmic value of the compound concentration as the X-axis and the inhibition rater as the Y-axis, and a four-parameter model was used to calculate the half inhibitory concentration IC50 of the compound.

CDK1/CycB = CDK1/CycB (Homo sapiens (Human), UniProt P06493); assay: LANCE Ultra kinase activity inhibition assay, CDK1/CycB; format: biochemical; conditions: ATP 4 μM, highest compound concentration 10 μM
Text: as §1
(§8) The assay for each kinase includes three test groups, i.e., a background group (Blank), a non-inhibition group (PC), and compound testing group (Test). The components included in each test group were as follows:
as §2, §3, §4, §5
(§9) After the test solution was added, the solution was placed on a shaker and continually incubated at room temperature for 1 h in the dark. […] The inhibition rate was calculated as below.
as §6, §7

CDK2/CycA = CDK2/CycA (Homo sapiens (Human), UniProt P24941); assay: LANCE Ultra kinase activity inhibition assay, CDK2/CycA; format: biochemical; conditions: ATP 10 μM, highest compound concentration 10 μM
Text: as §1, §8, §2, §3, §4, §5, §9, §6, §7

[1] = In vivo pharmacokinetics in mice; conditions: mouse, plasma, po, male ICR mice, intragastric 10 mg/kg; for AUC(0-t): read-out: Area under the oral curve AUC0-t; for Cmax: read-out: Oral maximum plasma concentration Cmax(ng/mL)
Procedure: To investigate the pharmacokinetic behaviors of the compounds according to the present disclosure in mice and evaluate the pharmacokinetic characteristics thereof, the plasma concentrations of the compounds according to the present disclosure in mice at different time points after intravenous injection and intragastric administration of the compounds were determined by LC/MS/MS.
Experimental Protocol: • Experimental animals: healthy adult male ICR mice (12 mice with body weight of 30-40 g, free water and diet for intravenous injection group, and fasted overnight for intragastric administration group, free water and diet after 4 hours of administration) were provided by Beijing Vital River Laboratory Animal Co. LTD; • Administration route and dosage: the ICR mice were administrated intravenously via the tail vein (2 mg/kg, 5% DMSO, pH 4.5 20% Captisol) and intragastrically (10 mg/kg, 5% DMSO, pH 4.5 20% Captisol).
Blood sample collection: prior to the administration, animals satisfying the experimental requirements were selected, weighed and marked. Before collecting blood samples, the mice were tied together, and the blood of each administrated mouse was collected at the respective scheduled time points (for the intravenous administration, the blood was collected at 0.083 h, 0.25 h, 0.5 h, 1 h, 2 h, 4 h, 6 h, 7.5 h, and 24 h after the administration, respectively, for a total of 9 time points; for the intragastric administration, the blood was collected at 0.083 h, 0.25 h, 0.5 h, 1 h, 2 h, 4 h, 6 h, 7.5 h, and 24 h after the administration, respectively, for a total of 9 time points), about 100 μL of blood was collected from orbit. The blood was transferred to a 1.5 mL tube, which was pre-filled with K2EDTA, centrifuged for 4 minutes (8000 rpm, 4° C.), and the plasma removed within 15 minutes, which all the steps were finished in 15 minutes after the collection of blood samples. All samples were stored in −20° C. refrigerator before sample analysis. The drug concentrations were determined using the LC/MS/MS method, the pharmacokinetic parameters of the compounds of some examples of the present disclosure in mice at the same dosage and administration routes were lists in Table 3: […]

[2] = test system: MV4-11 acute myeloid leukemia xenografts; assay: In vivo pharmacodynamic assay, MV4-11 subcutaneous xenograft; parameters: species or system BALB/c nude mice; conditions: Table 5, oral, once a day
Procedure: In vivo pharmacodynamic assays were performed on (CDX)BALB/c nude mice implanted subcutaneously with MV4-11 acute myeloid leukemia […] xenografts derived from human tumor cell lines.
Experimental protocol: BALB/c nude mice, female, 6-10 weeks old, with weight of approximately 20-23 grams, were maintained in a specific pathogen-free environment, 5 mice in each cage, and 2 cages with 10 mice as one group. All the cages, bedding and water were disinfected before use. All animals had free access to a standard certified commercial laboratory diet. […] Each mouse was implanted subcutaneously with tumor cells (1×10^7 0.1 ml+Matrigel 0.1 ml) in the right flank for tumor growth. When the mean tumor volume reached approximately 165 mm^3, the tumors were randomly grouped according to body weight and tumor volume, and the administration of the compounds began. Test compounds were administered via oral gavage daily. Antitumor efficacy was determined by dividing the mean tumor volume increase of the animals treated with the compound by the mean tumor volume increase of untreated animals.
Tumor volumes were measured twice a week with two-dimensional calipers, and volumes were measured in cubic millimeters. Tumor volume TV=0.5a×b^2, where a represent a long diameter of the tumor and b represents a short diameter of the tumor.
Relative tumor proliferation rate T/C (%), i.e., a percentage value of relative tumor volume of treatment group to relative tumor volume of control group at a certain time point, can be calculated based on an equation of T/C %=TRTV/CRTV×100 (TRTV: mean RTV in treatment group; CRTV: mean RTV in solvent control group; RTV=Vt/V0, V0 being the tumor volume of the animal at the time of grouping, Vt being the tumor volume of the animal after treatment).
Body weight change (%) of tumor-bearing animals was calculated as follows:
(weight at measurement−weight at grouping)/weight at grouping×100.

Chain of CDK1/CycB (P06493 whole entry): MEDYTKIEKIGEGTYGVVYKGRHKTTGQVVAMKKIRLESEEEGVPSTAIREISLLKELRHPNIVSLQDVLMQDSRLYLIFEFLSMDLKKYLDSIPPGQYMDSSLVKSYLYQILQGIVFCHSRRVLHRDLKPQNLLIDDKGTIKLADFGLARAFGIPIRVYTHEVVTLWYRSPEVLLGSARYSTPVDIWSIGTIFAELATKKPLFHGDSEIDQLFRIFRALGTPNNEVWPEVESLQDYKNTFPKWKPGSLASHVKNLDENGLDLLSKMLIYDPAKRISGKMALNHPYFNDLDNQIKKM
Chain of CDK1/CycB (P14635 whole entry partner): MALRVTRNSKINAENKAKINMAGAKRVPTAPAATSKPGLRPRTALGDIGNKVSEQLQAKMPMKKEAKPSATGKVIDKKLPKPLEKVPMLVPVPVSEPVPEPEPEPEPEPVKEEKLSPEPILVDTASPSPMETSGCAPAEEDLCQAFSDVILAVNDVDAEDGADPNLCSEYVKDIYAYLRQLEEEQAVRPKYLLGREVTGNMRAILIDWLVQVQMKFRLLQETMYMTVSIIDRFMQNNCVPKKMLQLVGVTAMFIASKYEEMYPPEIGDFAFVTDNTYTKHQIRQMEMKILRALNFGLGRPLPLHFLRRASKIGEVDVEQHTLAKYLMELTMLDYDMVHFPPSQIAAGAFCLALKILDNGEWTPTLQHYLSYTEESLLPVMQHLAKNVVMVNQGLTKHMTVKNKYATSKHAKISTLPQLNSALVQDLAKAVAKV
Chain of CDK9/CycT (P50750 whole entry): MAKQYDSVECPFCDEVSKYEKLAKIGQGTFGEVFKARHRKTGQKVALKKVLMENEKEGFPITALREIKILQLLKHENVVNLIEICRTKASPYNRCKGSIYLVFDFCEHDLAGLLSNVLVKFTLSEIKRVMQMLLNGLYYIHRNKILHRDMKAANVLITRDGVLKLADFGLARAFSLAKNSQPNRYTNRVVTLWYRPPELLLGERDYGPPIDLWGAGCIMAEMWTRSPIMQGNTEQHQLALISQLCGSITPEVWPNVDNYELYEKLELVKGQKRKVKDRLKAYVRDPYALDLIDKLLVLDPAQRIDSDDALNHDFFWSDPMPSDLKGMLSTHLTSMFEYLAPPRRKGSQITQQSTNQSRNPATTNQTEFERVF
Chain of CDK9/CycT (O60563 whole entry partner): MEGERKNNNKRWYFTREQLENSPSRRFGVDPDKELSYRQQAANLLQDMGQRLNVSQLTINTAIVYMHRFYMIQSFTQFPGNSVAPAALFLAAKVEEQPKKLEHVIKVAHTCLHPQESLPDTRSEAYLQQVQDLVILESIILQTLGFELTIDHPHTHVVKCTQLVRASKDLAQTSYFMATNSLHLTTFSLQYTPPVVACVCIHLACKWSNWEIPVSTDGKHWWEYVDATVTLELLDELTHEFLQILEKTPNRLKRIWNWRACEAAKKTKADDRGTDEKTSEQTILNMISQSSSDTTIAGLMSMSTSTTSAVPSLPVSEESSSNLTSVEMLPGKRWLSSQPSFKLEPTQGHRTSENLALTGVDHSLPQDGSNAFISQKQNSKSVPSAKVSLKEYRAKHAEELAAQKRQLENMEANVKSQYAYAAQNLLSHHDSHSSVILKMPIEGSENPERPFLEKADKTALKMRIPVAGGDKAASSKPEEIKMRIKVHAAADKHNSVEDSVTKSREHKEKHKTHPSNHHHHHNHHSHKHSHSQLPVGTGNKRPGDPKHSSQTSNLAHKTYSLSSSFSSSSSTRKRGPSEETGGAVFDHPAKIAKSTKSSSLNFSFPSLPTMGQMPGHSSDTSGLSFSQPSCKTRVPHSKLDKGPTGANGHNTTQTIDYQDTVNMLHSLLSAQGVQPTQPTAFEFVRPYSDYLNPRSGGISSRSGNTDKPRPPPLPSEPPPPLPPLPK

SMILES | IC50 (CDK9/CycT) | IC50 (CDK1/CycB) | IC50 (CDK2/CycA) | AUC(0-t) [1] | Cmax [1] | Average tumor weight ([2]; 5 mpk) | T/C(%) ([2]; 5 mpk) | Average tumor weight ([2]; 10 mpk) | T/C(%) ([2]; 10 mpk) | Average tumor weight ([2]; 12.5 mpk) | T/C(%) ([2]; 12.5 mpk) | Average tumor weight ([2]; 25 mpk) | T/C(%) ([2]; 25 mpk)
C[C@H](c1cc(N[C@H]2C[C@H](N)C2)n2nccc2n1)C1CC1 [Compound Z-62-P1] | 0.01 µM | 1.71 µM | 1.97 µM | 2060 ng·h/mL | 786 ng/mL | – | – | – | – | – | – | – | –
Cc1cnn2c(N[C@H]3CC[C@H](N)C3)cc(C(C3CC3)C3CC3)nc12 [Compound Z-9] | 0.008 µM | 1.04 µM | 1.55 µM | 7860 ng·h/mL | 740 ng/mL | – | – | – | – | – | – | – | –
C=CC(C)(C)c1cc(N[C@H]2CC[C@H](N)C2)n2ncc(Cl)c2n1 [Compound Z-56] | 0.013 µM | 2.48 µM | 3.78 µM | 6090 ng·h/mL | 409 ng/mL | – | – | – | – | – | – | – | –
C[C@H](c1cc(N[C@H]2CC[C@H](N)C2)n2nccc2n1)C1CCC1 [Compound Z-11-P1] | – | – | – | 2960 ng·h/mL | 379 ng/mL | – | – | – | – | – | – | – | –
C[C@H](c1cc(N[C@H]2CC[C@H](N)C2)n2nccc2n1)C1CC1 [Compound Z-5-2] | 0.007 µM | – | – | 1700 ng·h/mL | 690 ng/mL | 0.72 g | 59.25% | 0.04 g | 3.45% | – | – | – | –
Cc1cnn2c(N[C@H]3CC[C@H](N)C3)cc([C@@H](C)C3CC3)nc12 [Compound Z-32-P2] | 0.056 µM | 8.22 µM | 6.82 µM | 9410 ng·h/mL | 696 ng/mL | – | – | – | – | – | – | – | –
CCC(CC)c1cc(N[C@H]2CC[C@H](N)C2)n2nccc2n1 [Compound D, reference compound] | – | – | – | 1190 ng·h/mL | 433 ng/mL | – | – | – | – | 0.43 g | 35.91% | 0.04 g | 2.90%
